This note sets out measurements from patent US12180207B2 (ARRAY BIOPHARMA INC., priority 2018, dated 2024).

The target in test [1] is recombinant human FGFR3 (amino acids R397-T806) (Homo sapiens (Human), UniProt P22607). Nature of the test: FGFR3 enzyme activity assay (LanthaScreen TR-FRET). The class given is biochemical. Particulars: 25 μM ATP, 10 min incubation at 22° C., average of multiple determinations if made, read-out: FGFR3 Enz FRET IC50. The gist of the method: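 GST-HIS6-tagged human FGFR3 (R397-T806) was reacted with 100 nM Alexa Fluor 647-Poly-GT substrate and 25 μM ATP plus compound in HEPES/MgCl2/Triton buffer, pH 7.5, 2% DMSO, for 10 min at 22 °C.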
Sequence of recombinant human FGFR3 (amino acids R397-T806) (P22607 397-806): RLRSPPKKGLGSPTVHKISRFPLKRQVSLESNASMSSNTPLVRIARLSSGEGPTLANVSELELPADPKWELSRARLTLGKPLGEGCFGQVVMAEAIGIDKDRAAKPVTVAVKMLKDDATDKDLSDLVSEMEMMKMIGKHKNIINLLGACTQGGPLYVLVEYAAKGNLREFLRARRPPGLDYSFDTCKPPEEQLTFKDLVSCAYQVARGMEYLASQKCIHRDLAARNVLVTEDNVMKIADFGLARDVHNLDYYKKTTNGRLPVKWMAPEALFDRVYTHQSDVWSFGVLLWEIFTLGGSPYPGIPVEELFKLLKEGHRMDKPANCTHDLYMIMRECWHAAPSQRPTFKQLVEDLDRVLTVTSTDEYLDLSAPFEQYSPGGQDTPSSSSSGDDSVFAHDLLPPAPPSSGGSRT

In test [2] the target is HEK-293 cells transfected with dox-inducible human wild type FGFR3 (Homo sapiens (Human), UniProt P22607). Nature of the test: FGFR3 pERK cell assay. The class given is cell-based. As to conditions: HEK-293 dox-inducible FGFR3, 1 hour compound, 100 ng/ml FGF-acidic; maximum concentration 5 μM. A digest of the protocol:
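Doxycycline-induced cells preincubated 1 h at 37 °C with compound (1:3 dilutions, top 5 μM final), then stimulated 5 min with 100 ng/ml FGF-acidic. Lysate phospho-ERK1/2 measured by MSD sandwich assay; IC50 at 50 POC from 4-parameter fit, normalised to no-compound and control-compound wells.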

Test [3] deals with recombinant human FGFR1 catalytic domain (amino acids 308-731) (Homo sapiens (Human), UniProt P11362). Nature of the test: FGFR1 enzyme activity assay (LanthaScreen TR-FRET). As to conditions: 20 min incubation at 22° C., average of multiple determinations if made, read-out: FGFR1 Enz FRET IC50. The class given is biochemical. The gist of the method: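 His-tagged FGFR1 kinase domain with 100 nM Alexa Fluor 647-poly-GT peptide and ATP in pH 7.5 HEPES/MgCl2 buffer with 2% DMSO, 20 min at 22 °C. Quenched with EDTA plus 2 nM Eu-PY20 antibody and read after 60 min. IC50 comes from a 4-parameter fit of percent of control.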
Sequence of recombinant human FGFR1 catalytic domain (amino acids 308-731) (P11362 other isoform, or with tags, fused parts or gaps): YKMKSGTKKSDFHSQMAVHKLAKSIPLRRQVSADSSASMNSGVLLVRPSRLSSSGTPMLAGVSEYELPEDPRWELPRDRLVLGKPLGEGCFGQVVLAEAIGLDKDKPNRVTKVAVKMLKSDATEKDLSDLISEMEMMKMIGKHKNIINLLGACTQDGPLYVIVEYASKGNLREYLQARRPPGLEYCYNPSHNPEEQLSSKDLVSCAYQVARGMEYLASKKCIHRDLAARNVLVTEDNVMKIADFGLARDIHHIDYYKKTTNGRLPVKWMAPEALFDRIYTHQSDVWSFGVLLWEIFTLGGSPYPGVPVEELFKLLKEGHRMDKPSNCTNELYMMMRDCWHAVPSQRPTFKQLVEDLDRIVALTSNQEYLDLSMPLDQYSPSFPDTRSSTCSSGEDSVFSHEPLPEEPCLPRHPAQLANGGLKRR
Background: Time-resolved FRET reads energy transfer from a long-lived donor to a nearby acceptor.

What is called IC50 is the concentration at which inhibition is half-maximal.

Sequence of HEK-293 cells transfected with dox-inducible human wild type FGFR3 (P22607 23-806): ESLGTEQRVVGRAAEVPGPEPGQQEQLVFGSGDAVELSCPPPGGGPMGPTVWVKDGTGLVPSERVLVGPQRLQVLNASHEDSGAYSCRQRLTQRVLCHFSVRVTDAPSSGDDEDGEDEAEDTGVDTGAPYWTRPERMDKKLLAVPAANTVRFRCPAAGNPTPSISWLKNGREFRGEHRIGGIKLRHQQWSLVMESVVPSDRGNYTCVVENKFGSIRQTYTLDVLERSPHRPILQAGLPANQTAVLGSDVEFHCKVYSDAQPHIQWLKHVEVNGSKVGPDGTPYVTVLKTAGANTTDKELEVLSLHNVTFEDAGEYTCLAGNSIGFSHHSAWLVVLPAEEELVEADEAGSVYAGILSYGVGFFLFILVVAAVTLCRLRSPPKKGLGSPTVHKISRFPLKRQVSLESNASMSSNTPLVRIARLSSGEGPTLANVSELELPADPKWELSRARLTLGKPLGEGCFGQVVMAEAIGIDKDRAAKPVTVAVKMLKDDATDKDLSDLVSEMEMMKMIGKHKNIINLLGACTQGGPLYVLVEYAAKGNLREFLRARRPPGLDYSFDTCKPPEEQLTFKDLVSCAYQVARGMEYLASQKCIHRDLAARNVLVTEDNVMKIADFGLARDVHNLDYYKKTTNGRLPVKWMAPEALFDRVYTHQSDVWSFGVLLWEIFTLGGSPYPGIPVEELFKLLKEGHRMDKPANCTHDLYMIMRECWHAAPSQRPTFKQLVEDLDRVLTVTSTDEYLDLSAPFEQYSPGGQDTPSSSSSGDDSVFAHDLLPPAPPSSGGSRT

As to `C=CC(=O)N1CC(CN2CCC(n3ncc(-c4cc(OC)c5c(Cl)cnn5c4)c3C)CC2)C1(C)C` (stereo not drawn) [Example 120, 1-(3-((4-(4-(3-chloro-4-methoxypyrazolo[1,5-a]pyridin-6-yl)-5-methyl-1H-pyrazol-1-yl)piperidin-1-yl)methyl)-2,2-dimethylazetidin-1-yl)prop-2-en-1-one], the IC50 in test [1] came out at 72 nM; in test [2], 142 nM; in test [3] it was 338 nM.

On to `C=CC(=O)N1CCN(C(=O)N2CCC(n3cc(-c4cc(OC)c5c(C#N)cnn5c4)cn3)CC2)C[C@@H]1CC#N` [Example 135, (S)-6-(1-(1-(4-acryloyl-3-(cyanomethyl)piperazine-1-carbonyl)piperidin-4-yl)-1H-pyrazol-4-yl)-4-methoxypyrazolo[1,5-a]pyridine-3-carbonitrile], for which the 50% inhibitory concentration (IC50) in test [1] stood at 6 nM; in test [2], 40 nM; in test [3], 20 nM.

Turning to `COc1cc(-c2cnn(C3CCN(C(=O)C4CN(C(=O)C5=CCC5)C4)CC3)c2)cn2ncc(C#N)c12` [Example 137, 6-(1-(1-(1-(cyclobut-1-ene-1-carbonyl)azetidine-3-carbonyl)piperidin-4-yl)-1H-pyrazol-4-yl)-4-methoxypyrazolo[1,5-a]pyridine-3-carbonitrile], the figures for the IC50 in test [1], in test [2] and in test [3] were 5 nM, 318 nM and 12 nM, respectively.

Regarding `COc1cc(-c2cnn(C3CCN(C(=O)C4CN(C(=O)/C=C/CO)C4)CC3)c2)cn2ncc(C#N)c12` [Example 141, (E)-6-(1-(1-(1-(4-hydroxybut-2-enoyl)azetidine-3-carbonyl)piperidin-4-yl)-1H-pyrazol-4-yl)-4-methoxypyrazolo [1,5-a]pyridine-3-carbonitrile], the values for the IC50 in test [1], in test [2] and in test [3] were 6 nM, 3910 nM and 43 nM, respectively.

On to `C=CC(=O)N1CC(CN2CCC(n3ncc(-c4cc(OC)c5c(C#N)cnn5c4)c3C)CC2)C1(C)C` (stereo not drawn) [Example 151, 6-(1-(1-((1-acryloyl-2,2-dimethylazetidin-3-yl)methyl)piperidin-4-yl)-5-methyl-1H-pyrazol-4-yl)-4-methoxypyrazolo [1,5-a]pyridine-3-carbonitrile], for which the IC50 in test [1] turned out to be 17 nM; in test [2], 592 nM; in test [3], 86 nM.

Consider `COc1cc(-c2cnn(C3CCN(C(=O)C4CN(C(=O)/C=C/CN(C)C)C4)CC3)c2C)cn2ncc(C#N)c12` [Example 152, (E)-6-(1-(1-(1-(4-(dimethylamino)but-2-enoyl)azetidine-3-carbonyl)piperidin-4-yl)-5-methyl-1H-pyrazol-4-yl)-4-methoxypyrazolo [1,5-a]pyridine-3-carbonitrile], for which the IC50 in test [1] came out at 16 nM; in test [2] it was 849 nM; in test [3] it was 99 nM.

Consider `COc1cc(-c2cnn(C3CCN(C(=O)C4(F)CN(C(=O)/C=C/CN(C)C)C4)CC3)c2C)cn2ncc(C#N)c12` [Example 153, (E)-6-(1-(1-(1-(4-(dimethylamino)but-2-enoyl)-3-fluoroazetidine-3-carbonyl)piperidin-4-yl)-5-methyl-1H-pyrazol-4-yl)-4-methoxypyrazolo [1,5-a]pyridine-3-carbonitrile], for which the IC50 is 5 nM in test [1], 25 nM in test [2] and 39 nM in test [3].

In the case of `COC/C=C/C(=O)N1CC(F)(C(=O)N2CCC(n3ncc(-c4cc(OC)c5c(C#N)cnn5c4)c3C)CC2)C1` [Example 154, (E)-6-(1-(1-(3-fluoro-1-(4-methoxybut-2-enoyl)azetidine-3-carbonyl)piperidin-4-yl)-5-methyl-1H-pyrazol-4-yl)-4-methoxypyrazolo [1,5-a]pyridine-3-carbonitrile], the figures for the IC50 in test [1], in test [2] and in test [3] were 19 nM, 122 nM and 335 nM, respectively.

Consider `COc1cc(-c2cnn(C3CCN(C(=O)C4(F)CN(C(=O)/C=C/C(F)(F)F)C4)CC3)c2C)cn2ncc(C#N)c12` [Example 155, (E)-6-(1-(1-(3-fluoro-1-(4,4,4-trifluorobut-2-enoyl)azetidine-3-carbonyl)piperidin-4-yl)-5-methyl-1H-pyrazol-4-yl)-4-methoxypyrazolo [1,5-a]pyridine-3-carbonitrile], for which the IC50 in test [1] worked out at 11 nM; in test [2] it was 31 nM; in test [3], 255 nM.

For the compound `CC#CC(=O)N1CC(F)(C(=O)N2CCC(n3ncc(-c4cc(OC)c5c(C#N)cnn5c4)c3C)CC2)C1` [Example 156, 6-(1-(1-(1-(but-2-ynoyl)-3-fluoroazetidine-3-carbonyl)piperidin-4-yl)-5-methyl-1H-pyrazol-4-yl)-4-methoxypyrazolo [1,5-a]pyridine-3-carbonitrile], the IC50 in test [1] amounted to 24 nM; in test [2] it was 91 nM; in test [3] it was 375 nM.

Take `COc1cc(-c2cnn(C3CCN(C(=O)C4(C)CN(C(=O)/C=C/CN(C)C)C4)CC3)c2C)cn2ncc(C#N)c12` [Example 157, (E)-6-(1-(1-(1-(4-(dimethylamino)but-2-enoyl)-3-methylazetidine-3-carbonyl)piperidin-4-yl)-5-methyl-1H-pyrazol-4-yl)-4-methoxypyrazolo [1,5-a]pyridine-3-carbonitrile]: the IC50 was found to be 18 nM in test [1], 1150 nM in test [2] and 90 nM in test [3].

Regarding `COc1cc(-c2cnn(C3CCN(C(=O)C4(OC)CN(C(=O)/C=C/CN(C)C)C4)CC3)c2C)cn2ncc(C#N)c12` [Example 158, (E)-6-(1-(1-(1-(4-(dimethylamino)but-2-enoyl)-3-methoxyazetidine-3-carbonyl)piperidin-4-yl)-5-methyl-1H-pyrazol-4-yl)-4-methoxypyrazolo [1,5-a]pyridine-3-carbonitrile], the IC50 in test [1] came out at 8 nM; in test [2], 108 nM; in test [3], 77 nM.

With `COc1cc(-c2cnn(C3CCN(CC4(OC)CN(C(=O)/C=C/CN(C)C)C4)CC3)c2C)cn2ncc(C#N)c12` [Example 159, (E)-6-(1-(1-((1-(4-(dimethylamino)but-2-enoyl)-3-methoxyazetidin-3-yl)methyl)piperidin-4-yl)-5-methyl-1H-pyrazol-4-yl)-4-methoxypyrazolo [1,5-a]pyridine-3-carbonitrile], the IC50 in test [1] is 10 nM; in test [2], 30 nM; in test [3], 70 nM.

For the compound `COc1cc(-c2cnn(C3CN(C(=O)C4(F)CN(C(=O)/C=C/CN(C)C)C4)C3)c2C)cn2ncc(C#N)c12` [Example 160, (E)-6-(1-(1-(1-(4-(dimethylamino)but-2-enoyl)-3-fluoroazetidine-3-carbonyl)azetidin-3-yl)-5-methyl-1H-pyrazol-4-yl)-4-methoxypyrazolo [1,5-a]pyridine-3-carbonitrile], the results for the IC50 in test [1], in test [2] and in test [3] were 34 nM, 481 nM and 248 nM, respectively.

On to `COc1cc(-c2c(C)nn(C3CCN(C(=O)C4(F)CN(C(=O)/C=C/CN(C)C)C4)CC3)c2C)cn2ncc(C#N)c12` [Example 161, (E)-6-(1-(1-(1-(4-(dimethylamino)but-2-enoyl)-3-fluoroazetidine-3-carbonyl)piperidin-4-yl)-3,5-dimethyl-1H-pyrazol-4-yl)-4-methoxypyrazolo [1,5-a]pyridine-3-carbonitrile], for which the IC50 in test [1] was determined as 20 nM; in test [2], 133 nM; in test [3] it was 154 nM.

As for `CCc1c(-c2cc(OC)c3c(C#N)cnn3c2)cnn1C1CCN(C(=O)C2(F)CN(C(=O)/C=C/CN(C)C)C2)CC1` [Example 162, (E)-6-(1-(1-(1-(4-(dimethylamino)but-2-enoyl)-3-fluoroazetidine-3-carbonyl)piperidin-4-yl)-5-ethyl-1H-pyrazol-4-yl)-4-methoxypyrazolo [1,5-a]pyridine-3-carbonitrile], the IC50 is 99 nM in test [1], 357 nM in test [2] and 311 nM in test [3].

Take `COc1cc(-c2nn(C3CCN(C(=O)C4(F)CN(C(=O)/C=C/CN(C)C)C4)CC3)nc2C)cn2ncc(C#N)c12` [Example 163, (E)-6-(2-(1-(1-(4-(dimethylamino)but-2-enoyl)-3-fluoroazetidine-3-carbonyl)piperidin-4-yl)-5-methyl-2H-1,2,3-triazol-4-yl)-4-methoxypyrazolo [1,5-a]pyridine-3-carbonitrile]: the IC50 was found to be 229 nM in test [1], 207 nM in test [2] and 2210 nM in test [3].

As to `COc1cc(-c2nnn(C3CCN(C(=O)C4(F)CN(C(=O)/C=C/CN(C)C)C4)CC3)c2C)cn2ncc(C#N)c12` [Example 164, (E)-6-(1-(1-(1-(4-(dimethylamino)but-2-enoyl)-3-fluoroazetidine-3-carbonyl)piperidin-4-yl)-5-methyl-1H-1,2,3-triazol-4-yl)-4-methoxypyrazolo [1,5-a]pyridine-3-carbonitrile], the results for the IC50 in test [1], in test [2] and in test [3] were 8 nM, 188 nM and 102 nM, respectively.
